From patent US7632957B2, “Esterification reaction products and cosmetic products” (The Nisshin Oillio Group, Ltd., priority 2005, dated 2009)

Key:
Assay type in all cases: physicochemical
[1] = Solubility of 4-tert-butyl-4′-methoxydibenzoylmethane when mixed with esterification reaction product; conditions: mixed with esterification reaction product (Production Example 1)
[2] = Water-holding property test 1 (water taken up by sample/Vaseline mixture at 40° C.); conditions: sample 1 g + Vaseline 9 g, mass of water to mass of mixture, higher is better
Description: (1) Water-Holding Property Test 1
The water-holding property test of esterification reaction products is conducted with reference to the lanolin water retention value test in British Pharmacopoeia (BP) as follows:
A measurement sample (1 g) and Vaseline (9 g) are mixed and vigorously stirred (200 to 300 rpm) in a thermostat chamber at 40° C. while dropwise adding purified water thereto. The point when water is no longer being received is determined as the end-point and is expressed as a percentage of mass of water to mass of the mixture. A higher value means better water-holding properties of the sample.

[3] = Water-holding property test 2 (differential scanning calorimetry of sample:water 7:3); conditions: sample:water 7:3, DSC 2° C./min from −15° C. to 45° C.; no peak = good water-holding
Description: (2) Water-Holding Property Test 2
A measurement sample and water are mixed at a mass ratio of 7:3 and are vigorously stirred (500 rpm, 3 minutes) in a thermostatic chamber at 70° C. to obtain a water-holding substance. The obtained water-holding substance is analyzed with a differential scanning calorimeter (device name “DSC 6200”, manufactured by Seiko Instruments Inc.). That is, the temperature of the water-holding substance is raised at a rate of 2° C./min in the range from −15° C. to 45° C. to obtain a differential scanning calorimetry curve, and the curve is confirmed whether an endothermic peak due to water at around 0° C. is present or not. When this endothermic peak is not observed, the water-holding properties are judged to be good.

[4] = Water-retaining property test (mass loss after 24 hours at 40° C.); conditions: reduced mass after 24 hours at 40° C., lid off; lower is better
Description: (3) Water-Retaining Property Test
A measurement sample (1 g) and Vaseline (9 g) are mixed and vigorously stirred (500 rpm, 3 minutes) in a thermostat chamber at 40° C. while dropwise adding 10 g of purified water thereto (the ratio of purified water to the mixture of sample and Vaseline was 1:1). When the sample become smooth, 10 g of the sample is uniformly applied onto a Petri dish so as to have a thickness of 0.5 to 1.5 mm and then put in a thermostat chamber at 40° C. with the lid off. After 24 hours, the sample is taken out from the chamber. The mass after the still standing is measured, and the reduced mass after the standing is calculated and is expressed as a percentage to the mass of the applied sample. A lower value means better water-retaining properties of the sample.

[5] = Dispersibility test (titanium oxide, octyl palmitate; wetting point and fluid point); conditions: sample 4 g + titanium oxide 20 g, octyl palmitate added; for (4) Dispersibility Wetting point: lower is better
Description: A sample (4 g) and titanium oxide (20 g) are mixed, and then octyl palmitate (manufactured by The Nisshin OilliO Group, Ltd. under the trade name Salacos P-8) is gradually added thereto. The point when the mixture become uniform as a whole is determined as the wetting point, and the point when the mixture starts to flow by tilting the whole mixture is determined as the fluid point. The amounts of octyl palmitate added until to reach the respective points are measured and used as the wetting point value and the fluid point value.
A lower wetting point value or a smaller difference between the wetting point value and the fluid point value means higher pigment-dispersing properties of the sample.

[6] = Water resistant ability (waterproof-film-forming ability), contact angle before and after washing; conditions: film on glass plate, before and after washing with flowing tap water 25 mL/s, 1 minute; smaller is better
Description: (6) Water Resistant Ability (Waterproof-Film-Forming Ability)
A sample is dissolved in chloroform to prepare a sample solution containing 10% by mass of the sample. The prepared sample solution is applied onto a washed glass plate. Then, the solvent is removed to form a film, and one drop of distilled water is dropped onto the formed film. The contact angle between the film surface and the water droplet is measured. After the measurement, the film is washed with flowing tap water (25 mL/s, 1 minute). The water resistant ability is evaluated by comparing the contact angles before and after the washing. A smaller difference in the contact angle before and after the washing means better water resistant ability.

COc1ccc(C(=O)CC(=O)c2ccc(C(C)(C)C)cc2)cc1 [4-tert-butyl-4′-methoxydibenzoylmethane]
solubility of 4-tert-butyl-4′-methoxydibenzoylmethane [1]: improved

CCCCCCC(O)CCCCCCCCCCC(=O)O[C@H]1CC[C@@]2(C)C(=CC[C@H]3[C@@H]4CC[C@H]([C@H](C)CCCC(C)C)[C@@]4(C)CC[C@@H]32)C1 (stereo partly shown) [Cholesteryl hydroxystearate, cholesteryl hydroxystearate]
(1) Water-holding properties [2]: 320 % by mass | endothermic peak due to water at around 0° C. [3]: detected | (3) Water-retaining properties [4]: 1.9 % by mass | (4) Dispersibility Fluid point [5]: 9 % by mass | (4) Dispersibility Wetting point [5]: 2 % by mass

CC(C)CCCCCCCCCCCCCCCOC(=O)CC(O)C(=O)OCCCCCCCCCCCCCCCC(C)C (stereo not shown) [Diisostearyl malate, diisostearyl malate]
(1) Water-holding properties [2]: 200 % by mass | endothermic peak due to water at around 0° C. [3]: detected | (3) Water-retaining properties [4]: 3.0 % by mass | (4) Dispersibility Fluid point [5]: 22 % by mass | (4) Dispersibility Wetting point [5]: 3 % by mass | Water resistant ability (difference in contact angle (°)) [6]: 47.4 °

polyglyceryl triisostearate
Water resistant ability (difference in contact angle (°)) [6]: 21.0 °
